Source: patent US20100257640A1, “METHOD FOR GROWING SUGARCANE” (SYNGENTA CROP PROTECTION, INC., priority 2007, published 2010)

Legend:
[1] = system: sugar cane Variety RB 86 7515; experiment: Greenhouse pot test: effect of formulated imidacloprid on vigour; assay type: in vivo; conditions: result in words
Source text: 1) carretel with one bud treated with Imidacloprid (1200 g. ha^−1) 2) carretel with one bud treated with Imidacloprid (1200 g. ha^−1)+15% v/v of polymer 3) stalk with 3 buds untreated 4) carretel with one bud untreated 5) carretel with one bud untreated+15% v/v of polymer 6) stalk with 3 buds treated with Imidacloprid (1200 g. ha^−1).
Twenty 1 L pots were filled with 16 L of clay soil, 1.6 L of sand and 8 g of nitrogen, 28 g of phosphorus (P2O5) and 16 g of potassium (K2O). Six carretels of 4 cm length with one bud were planted in each pot (treatments 1, 2, 4 and 5). Two stalks with three buds were planted in each control pot (treatments 3 and 6) to simulate conventional planting. A layer of 3 cm of soil was used to cover the carretels. The carretels of treatments 1 and 2 were treated with 1200 g ai.ha^−1 of imidacloprid, by dipping the carretels in the slurry for 3 min, based on the uptake capacity of carretels. The stalks were treated simulating a furrow application at 100 L.ha^−1 of slurry. Experimental design adopted was randomized complete block with four replications. The pots were maintained with adequate moisture during the test. Evaluations of: plant height, leaf width, culm diameter and number of tillers were done at 20, 30 and 42 days after planting.

[2] = system: sugar cane Variety RB 86-7515; experiment: Greenhouse pot test: effect of formulated abamectin on vigour (tillers, plant height, leaf width, culm diameter); assay type: in vivo
Protocol: Greenhouse test with sugarcane buds growing in pots were conducted to study the effect of formulated abamectin regarding “vigour”, tillers, plant height, leaf width and culm diameter on sugar cane Variety RB 86-7515.
1) carretel with one bud treated with abamectin 2) carretel with one bud treated with abamectin+15% v/v of polymer 3) stalk with 3 buds untreated 4) carretel with one bud untreated 5) carretel with one bud untreated+15% v/v of polymer 6) stalk with 3 buds treated with abamectin.
Twenty 1 L pots were filled with 16 L of clay soil, 1.6 L of sand and 8 g of nitrogen, 28 g of phosphorus (P2O5) and 16 g of potassium (K2O). Six carretels of 4 cm length with only one bud were planted in each pot (treatments 1, 2, 4 and 5). Two stalks with three buds were planted in each control pot (treatments 3 and 6) to simulate conventional planting. A layer of 3 cm of soil was used to cover the carretels. The carretels of treatments 1, 2 were treated with 200 ml/ha of abamectin, by dipping the carretels in the slurry for 3 min, based on the uptake capacity of carretels. The stalks were treated simulating a furrow application at 100 L.ha^−1 of slurry. Experimental design adopted was randomized complete block with four replications. The pots were maintained with adequate moisture during the test. […]

[3] = system: sugar cane Variety RB 86-7515; experiment: Greenhouse pot test: effect of formulated clothianidin on vigour; assay type: in vivo; conditions: carretels; result in words
Protocol: Greenhouse test with sugarcane buds growing in pots were conducted to study the effect of clothianidin equivalent to an application rate of 200 g ai. ha^−1 on “vigour”, evaluating tillers, plant height, leaf width and culm diameter. This trial was conducted on sugar cane Variety RB 86-7515.
1) carretel with one bud treated with clothianidin (200 g ai. ha^−1) 2) carretel with one bud treated with clothianidin (200 g ai. ha^−1)+15% v/v of polymer 3) stalk with 3 buds untreated 4) carretel with one bud untreated+15% v/v of polymer 5) carretel with one bud untreated 6) stalk with 3 buds treated with clothianidin (200 g ai. ha^−1).
Twenty 1 L pots were filled with 16 L of clay soil, 1.6 L of sand and 8 g of nitrogen, 28 g of phosphorus (P2O5) and 16 g of potassium (K2O). Six carretels of 4 cm length with one bud were planted in each pot (treatments 1, 2, 4 and 5). Two stalks with three buds were planted in each control pot (treatments 3 and 6) to simulate conventional planting. A layer of 3 cm of soil was used to cover the carretels. The carretels of treatments 1 and 2 were treated with 200 g ai.ha^−1 of clothianidin, by dipping the carretels in a slurry for 3 min. The stalks were treated simulating a furrow application at 100 L.ha^−1 of slurry. The pots were maintained with adequate moisture during the test. […]

[4] = system: Variety RB 86-7515; experiment: Greenhouse pot test: effect of formulated thiamethoxam on vigour; assay type: in vivo, sugarcane
Protocol: This trial was conducted on Variety RB 86-7515.

[5] = system: sugar cane Variety RB 86-7515; experiment: Greenhouse pot test: effect of formulated fipronil on vigour; assay type: in vivo; conditions: result in words
Protocol: Greenhouse test with sugarcane buds growing in pots were conducted to study the effect of fipronil equivalent to an application rate of 200 g. ha^−1 on “vigour”, evaluating tillers, plant height, leaf width and culm diameter on sugar cane Variety RB 86-7515.
Twenty 1 L pots were filled with 16 L of clay soil, 1.6 L of sand and 8 g of nitrogen, 28 g of phosphorus (P2O5) and 16 g of potassium (K2O). Six carretels of 4 cm length with one bud were planted in each pot (treatments 1, 2, 4 and 5). Two stalks with three buds were planted in each control pot (treatments 3 and 6) to simulate conventional planting. A layer of 3 cm of soil was used to cover the carretels. The carretels of treatments 1 and 2 were treated with 200 g ai.ha^−1 of fipronil, by dipping the carretels in the slurry for 3 min, based on the uptake capacity of carretels. The stalks were treated simulating a furrow application at 100 L.ha^−1 of slurry. Experimental design adopted was randomized complete block with four replications. The pots were maintained with adequate moisture during the test. Evaluations of: plant height, leaf width, culm diameter and number of tillers were done at 20, 30 and 42 days after planting.

## O=[N+]([O-])NC1=NCCN1Cc1ccc(Cl)nc1 [Imidacloprid, imidacloprid]
[1]
  number of tillers in comparison with the control: increase in the number of tillers in comparison with the control

## abamectin
[2]; carretel with one bud, dipped 3 min, 100 g ai/ha (Untreated + Polymer 0.0), polymer 15% v/v where named, 42 days after planting
  Tillers: 14 number
[2]; result in words
  number of tillers in comparison with the control: increase in the number of tillers in comparison with the control

## CN/C(=N\[N+](=O)[O-])NCc1cnc(Cl)s1 [Clothianidin, clothianidin]
[3]
  number of tillers in comparison with the corresponding control (untreated, one-bud): increased number of tillers
  plant height in comparison with the corresponding control (untreated, one-bud): slight reduction in the plant height

## CN1COCN(Cc2cnc(Cl)s2)/C1=N\[N+](=O)[O-] [Thiamethoxam, thiamethoxam]
[4]; against the other treatments, not apparent from the listed parameters
  increase in "quality": greater than the other treatments
[4]; carretels, result in words
  number of tillers in comparison with the corresponding controls: increased number of tillers
  plant height in comparison with the corresponding controls: reduced plant height

## N#Cc1nn(-c2c(Cl)cc(C(F)(F)F)cc2Cl)c(N)c1[S+]([O-])C(F)(F)F (stereo not shown) [Fipronil, fipronil]
[5]
  height of the resultant plants in comparison with the control: decreased the height of the resultant plants in comparison with the control
  number of tillers in comparison with the control: increased the number of tillers present on the plants
